Assay results from patent US4535083A, “Cleavage products of 4',6'-didesoxy-4'-thio-,6'-amino-hepturonic acid nucleosides” (Bayer Aktiengesellschaft, priority 1982, dated 1985).
In brackets after ≈: the same amount, converted by molar mass.

Legend:
Experiment in all cases: in vitro agar dilution test (NCCLS), MIC
Type in all cases: cell-based
Klebs. 57 USA = conditions: inoculation density 10^4 per inoculation point
Protocol: (§1) In the in vitro agar dilution test according to the internationally customary test (American National Committee for Clinical Laboratory Standards=NCCLS), activity is found against the germs listed below.
(§2) The minimum inhibitory concentration (MIC) was determined by the agar dilution procedure, using an inoculator and an inoculation density of 10^4 per inoculation point. The MIC is the concentration at which no bacteria colonies grow.

Staph. epid. 25185 = conditions: inoculation density 10^4 per inoculation point
Protocol: as §1, §2

E. coli Neumann = conditions: Escherichia coli, inoculation density 10^4 per inoculation point
Protocol: as §1, §2

Serratia 16001 = conditions: inoculation density 10^4 per inoculation point
Protocol: as §1, §2

Structure (SMILES)	MIC (Klebs. 57 USA) [µg/mL]	MIC (Staph. epid. 25185) [µg/mL]	MIC (E. coli Neumann) [µg/mL]	MIC (Serratia 16001) [µg/mL]
Cn1c(=NC(N)=O)ccn(C2SC(C(O)C(NC(=O)C(N)CO)C(=O)O)C(O)C2O)c1=O (stereo not shown) [1 X = NCONH2]	4 (≈ 8.4 µM)	64 (≈ 134 µM)	32 (≈ 67.2 µM)	
Cn1c(=O)ccn(C2SC(C(O)C(NC(=O)C(N)CO)C(=O)O)C(O)C2O)c1=O (stereo not shown) [1 X = O]				128 (≈ 295 µM)
